We go through 2 molecules from ChEMBL document CHEMBL1145989, “Development of a water-soluble matrix metalloproteinase inhibitor as an intra-arterial infusion drug for prevention of restenosis after angioplasty” (J Med Chem, 2003).

Experiment [1] deals with Macrophage metalloelastase (Homo sapiens, UniProt P39900). The experiment is described as follows: Inhibition of human Matrix metalloprotease-12 (MMP-12).
For experiment [2], the target named is Matrix metalloproteinase-9 (Homo sapiens, UniProt P14780). The experiment can be described thus: Inhibition of human Matrix metalloprotease-9 (MMP-9).
Chain of Matrix metalloproteinase-9 (P14780 whole entry): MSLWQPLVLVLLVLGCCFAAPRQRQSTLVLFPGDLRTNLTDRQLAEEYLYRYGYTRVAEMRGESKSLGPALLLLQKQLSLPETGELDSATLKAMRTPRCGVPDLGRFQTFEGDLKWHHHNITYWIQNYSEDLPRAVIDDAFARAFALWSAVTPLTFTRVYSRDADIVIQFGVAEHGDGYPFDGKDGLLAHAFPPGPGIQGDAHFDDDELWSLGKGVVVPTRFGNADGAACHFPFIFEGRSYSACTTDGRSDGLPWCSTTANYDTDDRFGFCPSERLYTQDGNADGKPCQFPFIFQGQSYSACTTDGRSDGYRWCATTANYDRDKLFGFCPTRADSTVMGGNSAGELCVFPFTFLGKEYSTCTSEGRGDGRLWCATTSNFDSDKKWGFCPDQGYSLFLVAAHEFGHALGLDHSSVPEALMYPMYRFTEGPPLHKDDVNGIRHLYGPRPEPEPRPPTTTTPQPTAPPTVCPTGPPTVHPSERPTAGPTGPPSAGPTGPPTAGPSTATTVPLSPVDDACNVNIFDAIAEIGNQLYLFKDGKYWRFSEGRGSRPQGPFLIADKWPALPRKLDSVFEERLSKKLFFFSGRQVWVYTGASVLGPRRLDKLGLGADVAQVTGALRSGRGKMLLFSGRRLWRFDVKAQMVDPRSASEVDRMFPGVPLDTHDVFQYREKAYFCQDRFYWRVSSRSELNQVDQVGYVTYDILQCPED
Experiment [3] deals with 72 kDa type IV collagenase (Homo sapiens, UniProt P08253). The experiment can be described thus: Inhibition of human Matrix metalloprotease-2 (MMP-2).
Chain of 72 kDa type IV collagenase (P08253 whole entry): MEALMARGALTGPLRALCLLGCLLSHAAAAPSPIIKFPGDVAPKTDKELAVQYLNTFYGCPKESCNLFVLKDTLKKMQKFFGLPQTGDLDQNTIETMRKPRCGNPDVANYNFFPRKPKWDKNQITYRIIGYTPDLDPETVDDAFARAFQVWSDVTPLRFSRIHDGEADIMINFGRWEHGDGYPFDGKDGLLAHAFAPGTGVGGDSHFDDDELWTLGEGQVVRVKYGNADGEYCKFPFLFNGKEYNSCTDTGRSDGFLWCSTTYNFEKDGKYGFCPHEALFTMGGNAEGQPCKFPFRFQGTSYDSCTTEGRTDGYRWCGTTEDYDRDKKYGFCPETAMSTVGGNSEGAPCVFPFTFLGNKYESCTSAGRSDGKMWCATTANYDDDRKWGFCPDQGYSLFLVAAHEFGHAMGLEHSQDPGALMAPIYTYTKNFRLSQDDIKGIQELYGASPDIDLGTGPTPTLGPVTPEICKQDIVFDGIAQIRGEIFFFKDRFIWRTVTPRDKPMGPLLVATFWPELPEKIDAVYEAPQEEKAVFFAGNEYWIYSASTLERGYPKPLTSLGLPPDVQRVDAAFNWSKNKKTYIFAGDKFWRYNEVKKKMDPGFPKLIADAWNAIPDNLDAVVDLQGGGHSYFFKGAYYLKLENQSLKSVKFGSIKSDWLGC

Chain of Macrophage metalloelastase (P39900 whole entry): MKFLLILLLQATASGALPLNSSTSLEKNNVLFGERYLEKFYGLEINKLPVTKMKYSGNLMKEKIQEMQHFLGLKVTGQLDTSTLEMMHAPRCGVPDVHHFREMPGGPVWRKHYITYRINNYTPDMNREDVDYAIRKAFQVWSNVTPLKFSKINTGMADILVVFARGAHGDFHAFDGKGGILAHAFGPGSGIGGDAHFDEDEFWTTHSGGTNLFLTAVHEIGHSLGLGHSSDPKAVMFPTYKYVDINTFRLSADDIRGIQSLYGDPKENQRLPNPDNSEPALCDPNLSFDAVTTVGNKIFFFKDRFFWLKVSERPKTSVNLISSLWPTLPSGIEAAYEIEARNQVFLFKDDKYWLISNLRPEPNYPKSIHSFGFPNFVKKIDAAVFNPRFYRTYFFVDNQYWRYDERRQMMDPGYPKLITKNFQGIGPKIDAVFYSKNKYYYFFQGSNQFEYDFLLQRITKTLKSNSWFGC

By IC50 is commonly meant the concentration at which inhibition is half-maximal. With `C[C@@H](C[C@@H](COC(=O)CCC(=O)O)NC(=O)c1ccc(Oc2ccccc2)cc1)C(=O)NO`, the values for the IC50 in experiment [1], in experiment [2] and in experiment [3] were 2.6 nM, 2.8 nM and 1.1 nM, respectively.
For `C[C@@H](C[C@@H](CO)NC(=O)c1ccc(Oc2ccccc2)cc1)C(=O)NO`, in that order: 3.5 nM, 0.8 nM and 0.65 nM.
